The test concerns the target T1, Androgen Receptor (AR) (Homo sapiens, UniProt P10275, T878A).
T1 construct: cell based immuno-fluorescence assay using the LNCaP prostate epithelial cell line; endogenous in cells; host or cells: LNCaP clone FGC (ATCC CRL-1740)
T1 sequence (P10275 1-920 T878A): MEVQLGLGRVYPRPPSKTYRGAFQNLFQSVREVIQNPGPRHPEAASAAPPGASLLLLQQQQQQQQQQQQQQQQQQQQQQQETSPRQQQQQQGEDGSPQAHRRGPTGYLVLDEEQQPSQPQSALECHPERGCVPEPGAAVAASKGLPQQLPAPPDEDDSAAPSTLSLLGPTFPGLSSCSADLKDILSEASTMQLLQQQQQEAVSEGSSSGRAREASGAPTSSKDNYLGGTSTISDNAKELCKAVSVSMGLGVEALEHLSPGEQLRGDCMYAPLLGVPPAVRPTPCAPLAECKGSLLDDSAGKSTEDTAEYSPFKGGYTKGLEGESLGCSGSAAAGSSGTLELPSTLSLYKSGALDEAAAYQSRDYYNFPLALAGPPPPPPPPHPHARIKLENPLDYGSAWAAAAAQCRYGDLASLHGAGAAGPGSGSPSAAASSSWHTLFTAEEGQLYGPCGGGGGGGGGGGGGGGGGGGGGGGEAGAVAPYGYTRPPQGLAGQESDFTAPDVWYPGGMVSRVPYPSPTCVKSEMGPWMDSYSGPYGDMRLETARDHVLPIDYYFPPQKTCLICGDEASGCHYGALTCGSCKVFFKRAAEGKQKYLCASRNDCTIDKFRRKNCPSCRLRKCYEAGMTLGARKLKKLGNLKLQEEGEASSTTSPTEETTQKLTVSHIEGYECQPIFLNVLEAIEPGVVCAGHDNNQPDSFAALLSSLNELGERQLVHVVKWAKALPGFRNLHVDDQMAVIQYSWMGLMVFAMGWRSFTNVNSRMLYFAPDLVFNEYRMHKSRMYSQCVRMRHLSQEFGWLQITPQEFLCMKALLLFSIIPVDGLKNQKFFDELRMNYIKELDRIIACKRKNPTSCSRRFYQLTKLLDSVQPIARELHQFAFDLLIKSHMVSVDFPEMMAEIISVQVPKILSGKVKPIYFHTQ
As to the kind of experiment: LNCaP Androgen Receptor Down-regulation Cell Assay (immunofluorescence end point). The settings on record: LNCaP prostate carcinoma cells, compound incubation 20-22 hours, 50% reduction of the AR signal; read-out: Androgen Receptor Down-regulation Assay (a) IC50/μM. The format is cell-based. The method, boiled down:
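AR loss reported as IC50 from curve fits of fluorescence dose-response data, with AR immunostained and read by laser-scanning cytometry. Compound exposure was 20-22 h at 37° C in LNCaP cells grown in 5% charcoal-stripped FBS and plated overnight beforehand.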
As to `FC(F)(F)c1nnc2ccc(N3CCC(c4noc(-c5ccccc5)n4)CC3)nn12` [Example 301], the DC50 came to 1.8 µM. The result for `COc1cccc(S(=O)(=O)N2CC3CN(c4ccc5nnc(C(F)(F)F)n5n4)CC3C2)c1` (stereo not drawn) [Example 454] reads 9.2 µM. The result for `N#Cc1ccc(O[C@H]2CCN(c3ccc4nnc(C(F)(F)F)n4n3)C2)cc1` [Example 591] reads 20 µM; that for `O=C(c1ccc(N2CCN(c3ccc4nnc(C(F)(F)F)n4n3)CC2)cc1)N1CCCC1` [Example 748], 5.6 µM; that for `O=C(c1cccc(OC2CCN(c3ccc4nnc(C(F)(F)F)n4n3)CC2)c1)N1CCNCC1` [Example 688], 6.6 µM.

As for `FC(F)c1nnc2ccc(N3CCN(Cc4c[nH]c5ccc(Br)cc45)CC3)nn12` [Example 288], the DC50 stood at 3.3 µM.

As to `C[C@H]1CN(c2ccc3nnc(C(F)(F)F)n3n2)CCN1Cc1cccnc1` [Example 570, 6-[(3S)-3-methyl-4-(pyridin-3-ylmethyl)piperazin-1-yl]-3-(trifluoromethyl)[1,2,4]triazolo[4,3-b]pyridazine], the DC50 was found to be 4.5 µM. Then `Cc1cc(COc2cccc(C3CCN(c4ccc5nnc(C(F)(F)F)n5n4)CC3)c2)no1` [Example 674], with 1.1 µM. The result for `FC(F)(Cl)c1nnc2ccc(N3CC4CN(Cc5ccccc5)CC4C3)nn12` (stereo not drawn) [Example 354, 6-(5-benzylhexahydropyrrolo[3,4-c]pyrrol-2(1H)-yl)-3-[chloro(difluoro)methyl][1,2,4]triazolo[4,3-b]pyridazine] reads 2.7 µM; that for `O=S(=O)(c1ccc(F)cc1)N1CC2CN(c3ccc4nnc(C(F)(F)F)n4n3)CC2C1` (stereo not drawn) [Example 453], 5.7 µM.

On to `FC(F)(F)c1nnc2ccc(N3CCN(Cc4cc5ccccc5[nH]4)CC3)nn12` [Example 101, 6-[4-(1H-indol-2-ylmethyl)piperazin-1-yl]-3-(trifluoromethyl)-[1,2,4]triazolo[4,3-b]pyridazine], for which the DC50 is 1.7 µM.

For `FC(F)(F)c1nnc2ccc(N3CCC(Oc4ccncn4)CC3)nn12` [Example 619], the DC50 came to 4.5 µM. Then `Fc1cccc(OCC2CCN(c3ccc4nnc(C(F)(F)F)n4n3)CC2)c1` [Example 464], with 1.4 µM; and `FC(F)(F)Oc1ccc(CN2CCN(c3ccc4nnc(C(F)(F)F)n4n3)CC2)cc1` [Example 131, 6-[4-[[4-(trifluoromethoxy)phenyl]methyl]piperazin-1-yl]-3-(trifluoromethyl)-[1,2,4]triazolo[4,3-b]pyridazine], with 4.1 µM; and `O=C(c1cccc(OC2CCN(c3ccc4nnc(C(F)(F)F)n4n3)CC2)c1)N1CCCC1` [Example 692], with 4.2 µM.

Take `FC(F)(F)c1nnc2ccc(N3CCC(Cc4ccccn4)CC3)nn12` [Example 537]: the DC50 is 3 µM.

Turning to `N#Cc1cccc(CN2CCN(c3ccc4nnc(C(F)F)n4n3)CC2)c1` [Example 238], the DC50 is 5 µM. The result for `CC(C)Oc1ccc(CN2CCN(c3ccc4nnc(C(F)(F)F)n4n3)CC2)cc1` [Example 115, 6-[4-[(4-propan-2-yloxyphenyl)methyl]piperazin-1-yl]-3-(trifluoromethyl)-[1,2,4]triazolo[4,3-b]pyridazine] reads 2.5 µM.

Take `O=S(=O)(c1ccc(F)cc1)N1CCN(c2ccc3nnc(C(F)(F)F)n3n2)CC1` [Example 405]: the DC50 amounted to 3 µM. Regarding `FC(F)(F)c1ccccc1CN1CCN(c2ccc3nnc(C(F)(F)F)n3n2)CC1` [Example 67, 3-(trifluoromethyl)-6-[4-[[2-(trifluoromethyl)phenyl]methyl]piperazin-1-yl]-[1,2,4]triazolo[4,3-b]pyridazine], the DC50 stood at 1 µM. Take `FC(F)(F)c1nnc2ccc(N3CC4CN(Cc5ccccn5)CC4C3)nn12` (stereo not drawn) [Example 786]: the DC50 came out at 8.4 µM. Then `N#Cc1ccc(OCC2CCN(c3ccc4nnc(C(F)(F)F)n4n3)CC2)cc1` [Example 474], with 0.96 µM; and `COCCN(C)C(=O)c1cccc(OC2CCN(c3ccc4nnc(C(F)(F)F)n4n3)CC2)c1` [Example 699], with 2.1 µM; and `FC(F)Oc1ccc(CN2CCN(c3ccc4nnc(C(F)(F)F)n4n3)CC2)cc1` [Example 161, 6-[4-[[4-(difluoromethoxy)phenyl]methyl]piperazin-1-yl]-3-(trifluoromethyl)-[1,2,4]triazolo[4,3-b]pyridazine], with 1.4 µM.

On to `O=S(=O)(c1ccc2ccccc2c1)N1CCN(c2ccc3nnc(C(F)(F)F)n3n2)CC1` [Example 394, 6-[4-(naphthalen-2-ylsulfonyl)piperazin-1-yl]-3-(trifluoromethyl)[1,2,4]triazolo[4,3-b]pyridazine], for which the DC50 was determined as 5.6 µM. Then `FC(F)(F)c1nnc2ccc(N3CCN(Cc4cccc5cnccc45)CC3)nn12` [Example 65, 5-[[4-[3-(trifluoromethyl)-[1,2,4]triazolo[4,3-b]pyridazin-6-yl]piperazin-1-yl]methyl]isoquinoline], with 0.76 µM. Then `N#Cc1ccc(CN2CCCN(c3ccc4nnc(C(F)(F)F)n4n3)CC2)cc1` [Example 170, 4-[[4-[3-(trifluoromethyl)-[1,2,4]triazolo[4,3-b]pyridazin-6-yl]-1,4-diazepan-1-yl]methyl]benzonitrile], with 0.61 µM.

For `N#Cc1ccc(CCN2CCN(c3ccc4nnc(C(F)(F)F)n4n3)CC2)cc1` [Example 235], the DC50 is 1.9 µM.

In the case of `FC(F)(F)c1nnc2ccc(N3CCC(COc4ccc(Cl)cc4)CC3)nn12` [Example 470], the DC50 was 4.6 µM. For the compound `CS(=O)(=O)c1ccccc1CN1CCCN(c2ccc3nnc(C(F)(F)F)n3n2)CC1` [Example 164, 6-[4-[(2-methylsulfonylphenyl)methyl]-1,4-diazepan-1-yl]-3-(trifluoromethyl)-[1,2,4]triazolo[4,3-b]pyridazine], the DC50 worked out at 1.7 µM. Regarding `FC(F)(F)c1nnc2ccc(N3CCC(Oc4ccccc4Cl)CC3)nn12` [Example 530], the DC50 stood at 1.6 µM. Turning to `CC1CN(c2ccc3nnc(C(F)(F)F)n3n2)C(C)CN1Cc1cc(F)cc(F)c1` (stereo not drawn) [Example 220], the DC50 stood at 3.6 µM.

Turning to `FC(F)(F)c1nnc2ccc(N3CCCN(Cc4ccc(Cl)cc4)CC3)nn12` [Example 176, 6-[4-[(4-chlorophenyl)methyl]-1,4-diazepan-1-yl]-3-(trifluoromethyl)-[1,2,4]triazolo[4,3-b]pyridazine], the DC50 was 0.85 µM. Consider `CN(Cc1cc(F)cc(F)c1)C1CCN(c2ccc3nnc(C(F)(F)F)n3n2)CC1` [Example 410], for which the DC50 was found to be 2.1 µM. Take `FC(F)(F)c1nnc2ccc(N3CC4CN(Cc5cccnc5)CC4C3)nn12` (stereo not drawn) [Example 206, 6-[2-(pyridin-3-ylmethyl)-1,3,3a,4,6,6a-hexahydropyrrolo[3,4-c]pyrrol-5-yl]-3-(trifluoromethyl)-[1,2,4]triazolo[4,3-b]pyridazine]: the DC50 was 2 µM. Then `OC1(c2ccncc2)CCN(c2ccc3nnc(C(F)(F)F)n3n2)CC1` [Example 550], with 7.2 µM.

For `CCOc1ccc(CN2CCN(c3ccc4nnc(C(F)(F)F)n4n3)CC2)cn1` [Example 147, 6-[4-[(6-ethoxypyridin-3-yl)methyl]piperazin-1-yl]-3-(trifluoromethyl)-[1,2,4]triazolo[4,3-b]pyridazine], the DC50 was 2.5 µM. Regarding `FC(F)(F)c1nnc2ccc(N3CCC(c4ccc(OCCn5cccn5)cc4)CC3)nn12` [Example 849, 6-[4-[4-[2-(1H-pyrazol-1-yl)ethoxy]phenyl]piperidin-1-yl]-3-(trifluoromethyl)[1,2,4]triazolo[4,3-b]pyridazine], the DC50 is 0.68 µM. As for `FC(F)(F)c1nnc2ccc(N3CCN(CCc4cccc(Cl)c4)CC3)nn12` [Example 233], the DC50 worked out at 1.5 µM. In the case of `COCCN(C)C(=O)c1ccc2[nH]cc(C3CCN(c4ccc5nnc(C(F)(F)F)n5n4)CC3)c2c1` [Example 504], the DC50 stood at 1.9 µM. The result for `CCc1ccc(CN2CCN(c3ccc4nnc(C(F)(F)F)n4n3)CC2)cc1` [Example 159, 6-[4-[(4-ethylphenyl)methyl]piperazin-1-yl]-3-(trifluoromethyl)-[1,2,4]triazolo[4,3-b]pyridazine] reads 1.4 µM; that for `N#Cc1ccc(CN2CCN(c3ccc4nnc(C(F)(F)F)n4n3)CC(F)(F)C2)cc1` [Example 843], 0.93 µM.
